In patent publication US11787809B2 (NIHON NOHYAKU CO., LTD., priority 2015, dated 2023) one finds mortality data, which are given here for six compounds.

One assay concerns Laodelphax striatella. In words: Insecticidal test on Laodelphax striatella (rice seedling dip). Type of assay: in vivo. The note with it: Laodelphax striatellus, 192 h, read-out: insecticidal effect (corrected mortality rate). The text has this: Insecticidal Test on Laodelphax striatella
The oxime group-containing condensed heterocyclic compounds represented by the general formula (1) of the present invention or salts thereof were separately dispersed in water and diluted to 500 ppm, and rice plant seedlings (variety: Nihonbare) were dipped in the agrochemical dispersions for 30 seconds. After air-dried, each seedling was put into a separate glass test tube and inoculated with ten 3rd-instar larvae of Laodelphax striatella, and then the glass test tubes were capped with cotton plugs. At 8 days after the inoculation, the numbers of surviving larvae and dead larvae were counted, the corrected mortality rate was calculated according to the formula shown below, and the insecticidal effect was evaluated according to the criteria of Test Example 1. Corrected mortality rate (%)=100×(Survival rate in a non-treatment plot−Survival rate in a treatment plot)/Survival rate in a non-treatment plot [Math. 2]

A further assay has as its system Plutella xylostella. As to the kind of experiment: Insecticidal test on Plutella xylostella (dip of Chinese cabbage seedlings with laid eggs). In kind it is in vivo. The note with it: 144 h. An excerpt:
Insecticidal Test on Plutella xylostella
Adults of Plutella xylostella were released onto Chinese cabbage seedlings and allowed to lay eggs thereon. At 2 days after the release of the adults, the Chinese cabbage seedlings with laid eggs were dipped for about 30 seconds in agrochemical dispersions diluted to 500 ppm, each of which contained a different kind of oxime group-containing condensed heterocyclic compound represented by the general formula (1) of the present invention as an active ingredient. After air-dried, the seedlings were kept in a thermostatic chamber at 25° C. At 6 days after the dip treatment, the number of hatched larvae per plot was counted, the mortality rate was calculated according to the formula shown below, and the insecticidal effect was evaluated according to the criteria of Test Example 1. This test was conducted in triplicate using 10 adults of Plutella xylostella per plot. Corrected mortality rate (%)=100×(Number of hatched larvae in a non-treatment plot−Number of hatched larvae in a treatment plot)/Number of hatched larvae in a non-treatment plot [Math. 3]

[1] abbreviates: 500 ppm, rice seedlings (Nihonbare) dipped 30 seconds, ten 3rd-instar larvae, 8 days after inoculation, criteria of Test Example 1.
[2] abbreviates: 500 ppm, Chinese cabbage seedlings with laid eggs dipped about 30 seconds, 25° C., 6 days after dip treatment, criteria of Test Example 1, read-out: insecticidal effect (corrected mortality rate, hatched larvae).

Where two headings read alike, the source gives them in different places.

Regarding `CCS(=O)(=O)c1ccc(C=NOCC(F)(F)F)nc1-c1nc2cc(C(F)(F)F)nnc2n1C` [Compound 3-2], the mortality at 500 ppm with Laodelphax striatella (setting [1]) and in the assay with Plutella xylostella (setting [2]) was 100% throughout.

For `CCS(=O)(=O)c1cc(C=NOCC(F)(F)F)cnc1-c1nc2cc(C(F)(F)F)cnc2n1C` [Compound 2-33], the mortality at 500 ppm in the assay on Laodelphax striatella (setting [1]) and with Plutella xylostella (setting [2]) was 100% throughout.

`CCS(=O)(=O)c1cc(/C=N/OCC(F)(F)F)cnc1-c1nc2cc(SC(F)(F)F)ccc2o1` [Compound 4-12]: the mortality at 500 ppm in the assay with Laodelphax striatella (setting [1]) and in the assay with Plutella xylostella (setting [2]) was 100% throughout.

`CCS(=O)(=O)c1cc(C=NO)cnc1-c1nc2cc(C(F)(F)F)cnc2n1C` [Compound 2-3]: the mortality at 500 ppm with Laodelphax striatella (setting [1]) and in the assay with Plutella xylostella (setting [2]) was 100% each time.

Regarding `CCS(=O)(=O)c1cc(/C=N/O)cnc1-c1nc2cc(SC(F)(F)F)ccc2o1` [Compound 4-11], the mortality at 500 ppm with Laodelphax striatella (setting [1]) and in the assay on Plutella xylostella (setting [2]) was 100% in each case.

With `CCS(=O)(=O)c1ccc(C=NO)nc1-c1nc2cc(C(F)(F)F)nnc2n1C` [Compound 3-1], the mortality at 500 ppm in the assay on Laodelphax striatella (in Oryza sativa) stood at 100%; with Plutella xylostella (in Brassica rapa, read-out: insecticidal effect (corrected mortality rate, hatched larvae)), 100%.
